# Data from PubChem BioAssay AID344 (DTP/NCI, 2004).
# Values joined by “and” are separate entries in the source; they are usually repeats but may differ in a detail not shown here. Equal values may be shown once. Inconclusive results and toxic doses are left out.
# System: mice, LPC-1 plasma cell tumor ip, median survival T/C
# Assay: NCI In Vivo Anticancer Drug Screen. Data for tumor model Lieberman Plasma Cell No. 1 (LPC-1) (intraperitoneal) in unknown mice
# Settings: endpoint: median survival time, higher = longer survival
# Method: The antitumor activity of compounds was measured in mice bearing transplantable tumors. Survival or tumor size were measured and the results are expressed as the measurement made in the treated group (T) divided by the measurement made in the vehicle treated control group (C). The tumor model used in this assay is Lieberman Plasma Cell No. 1 (LPC-1) (intraperitoneal) in unknown mice
# [1] = dose: 108.0 mg/kg/injection, schedule: Q01DX028 (sc), vehicle: carboxymethylcellulose (CMC)
# [2] = dose: 180.0 mg/kg/injection, schedule: Q01DX028 (sc), vehicle: carboxymethylcellulose (CMC)
smiles,measurement,setting,value
N[C@@H](Cc1ccc(N(CCCl)CCCl)cc1)C(=O)O,T/C,"dose: 0.57 mg/kg/injection, schedule: Q01DX024 (oral), vehicle: carboxymethylcellulose (CMC)",92 % of control
same,T/C,"dose: 0.64 mg/kg/injection, schedule: Q01DX028 (sc), vehicle: saline",170 % of control
same,T/C,"dose: 0.65 mg/kg/injection, schedule: Q## X024 (sc), vehicle: saline",96 % of control
same,T/C,"dose: 1.07 mg/kg/injection, schedule: Q01DX028 (sc), vehicle: saline",107 % of control
same,T/C,"dose: 1.08 mg/kg/injection, schedule: Q01DX008 (sc), vehicle: saline",96 % of control
same,T/C,"dose: 1.08 mg/kg/injection, schedule: Q01DX009 (sc), vehicle: saline",103 % of control
same,T/C,"dose: 1.08 mg/kg/injection, schedule: Q## X024 (sc), vehicle: saline",96 % of control
same,T/C,"dose: 1.15 mg/kg/injection, schedule: Q01DX024 (oral), vehicle: carboxymethylcellulose (CMC)",100 % of control
same,T/C,"dose: 1.7 mg/kg/injection, schedule: Q01DX028 (sc), vehicle: saline",182 % of control
same,T/C,"dose: 1.8 mg/kg/injection, schedule: Q01DX005 (sc), vehicle: saline",381 % of control
same,T/C,"dose: 1.8 mg/kg/injection, schedule: Q01DX008 (sc), vehicle: saline",100 % of control
same,T/C,"dose: 1.8 mg/kg/injection, schedule: Q01DX009 (sc), vehicle: saline",103 % of control
same,T/C,"dose: 1.8 mg/kg/injection, schedule: Q## X024 (sc), vehicle: saline",103 % of control
same,T/C,"dose: 1.87 mg/kg/injection, schedule: Q01DX005 (oral), vehicle: carboxymethylcellulose (CMC)",88 % of control
same,T/C,"dose: 1.87 mg/kg/injection, schedule: Q## X015 (oral), vehicle: carboxymethylcellulose (CMC)",190 % of control
same,T/C,"dose: 1.9 mg/kg/injection, schedule: Q01DX005 (ip), vehicle: saline",161 % of control
same,T/C,"dose: 1.9 mg/kg/injection, schedule: Q## X015 (ip), vehicle: saline",105 % of control
same,T/C,"dose: 2.3 mg/kg/injection, schedule: Q01DX024 (oral), vehicle: carboxymethylcellulose (CMC)",91 % of control and 102 % of control
same,T/C,"dose: 2.9 mg/kg/injection, schedule: Q01DX028 (sc), vehicle: saline",155 % of control
same,T/C,"dose: 3.0 mg/kg/injection, schedule: Q01DX008 (sc), vehicle: saline",96 % of control
same,T/C,"dose: 3.0 mg/kg/injection, schedule: Q01DX009 (sc), vehicle: saline",100 % of control
same,T/C,"dose: 3.0 mg/kg/injection, schedule: Q01DX028 (sc), vehicle: saline",164 % of control and 167 % of control and 152 % of control
same,T/C,"dose: 3.0 mg/kg/injection, schedule: Q04DX003 (sc), vehicle: saline",109 % of control
same,T/C,"dose: 3.0 mg/kg/injection, schedule: Q## X024 (sc), vehicle: saline",96 % of control
same,T/C,"dose: 3.75 mg/kg/injection, schedule: Q01DX005 (oral), vehicle: carboxymethylcellulose (CMC)",100 % of control and 104 % of control
same,T/C,"dose: 3.75 mg/kg/injection, schedule: Q## X010 (oral), vehicle: carboxymethylcellulose (CMC)",95 % of control and 97 % of control
same,T/C,"dose: 3.75 mg/kg/injection, schedule: Q## X015 (oral), vehicle: carboxymethylcellulose (CMC)",214 % of control and 117 % of control
same,T/C,"dose: 3.8 mg/kg/injection, schedule: Q## X010 (ip), vehicle: saline",214 % of control
same,T/C,"dose: 3.8 mg/kg/injection, schedule: Q## X015 (ip), vehicle: saline",202 % of control
same,T/C,"dose: 4.0 mg/kg/injection, schedule: Q01DX028 (sc), vehicle: methylcellulose (MC)",97 % of control
same,T/C,"dose: 4.5 mg/kg/injection, schedule: Q01DX024 (oral), vehicle: carboxymethylcellulose (CMC)",88 % of control and 102 % of control
same,T/C,"dose: 5.0 mg/kg/injection, schedule: Q01DX008 (sc), vehicle: saline",96 % of control
same,T/C,"dose: 5.0 mg/kg/injection, schedule: Q01DX009 (sc), vehicle: saline",103 % of control
same,T/C,"dose: 5.0 mg/kg/injection, schedule: Q01DX024 (ip), vehicle: saline",111 % of control
same,T/C,"dose: 5.0 mg/kg/injection, schedule: Q01DX028 (sc), vehicle: saline",104 % of control and 105 % of control
same,T/C,"dose: 5.0 mg/kg/injection, schedule: Q04DX003 (sc), vehicle: saline",166 % of control
same,T/C,"dose: 5.0 mg/kg/injection, schedule: Q## X024 (sc), vehicle: saline",96 % of control
same,T/C,"dose: 7.5 mg/kg/injection, schedule: Q01DX005 (oral), vehicle: carboxymethylcellulose (CMC)",94 % of control and 104 % of control
same,T/C,"dose: 7.5 mg/kg/injection, schedule: Q## X010 (oral), vehicle: carboxymethylcellulose (CMC)",91 % of control and 95 % of control
same,T/C,"dose: 7.5 mg/kg/injection, schedule: Q## X015 (ip), vehicle: saline",108 % of control
same,T/C,"dose: 8.4 mg/kg/injection, schedule: Q01DX005 (sc), vehicle: saline",96 % of control
same,T/C,"dose: 8.4 mg/kg/injection, schedule: Q01DX008 (sc), vehicle: saline",96 % of control
same,T/C,"dose: 8.4 mg/kg/injection, schedule: Q01DX009 (sc), vehicle: saline",100 % of control
same,T/C,"dose: 8.4 mg/kg/injection, schedule: Q01DX028 (sc), vehicle: saline",100 % of control
same,T/C,"dose: 8.4 mg/kg/injection, schedule: Q04DX003 (sc), vehicle: saline",118 % of control
same,T/C,"dose: 9.0 mg/kg/injection, schedule: Q01DX024 (oral), vehicle: carboxymethylcellulose (CMC)",88 % of control and 90 % of control
same,T/C,"dose: 10.0 mg/kg/injection, schedule: Q01DX024 (ip), vehicle: saline",94 % of control
same,T/C,"dose: 14.0 mg/kg/injection, schedule: Q04DX003 (sc), vehicle: saline",109 % of control
same,T/C,"dose: 15.0 mg/kg/injection, schedule: Q01DX005 (ip), vehicle: saline",91 % of control
same,T/C,"dose: 15.0 mg/kg/injection, schedule: Q## X010 (ip), vehicle: saline",88 % of control
same,T/C,"dose: 15.0 mg/kg/injection, schedule: Q## X010 (oral), vehicle: carboxymethylcellulose (CMC)",97 % of control
same,T/C,"dose: 15.0 mg/kg/injection, schedule: Q## X015 (ip), vehicle: saline",88 % of control
same,T/C,"dose: 15.0 mg/kg/injection, schedule: Q## X015 (oral), vehicle: carboxymethylcellulose (CMC)",88 % of control and 90 % of control
same,T/C,"dose: 18.0 mg/kg/injection, schedule: Q01DX001 (ip), vehicle: saline",123 % of control
same,T/C,"dose: 19.0 mg/kg/injection, schedule: Q01DX001 (oral), vehicle: carboxymethylcellulose (CMC)",90 % of control
same,T/C,"dose: 23.0 mg/kg/injection, schedule: Q04DX003 (sc), vehicle: saline",103 % of control
same,T/C,"dose: 30.0 mg/kg/injection, schedule: Q01DX005 (oral), vehicle: carboxymethylcellulose (CMC)",88 % of control and 90 % of control
same,T/C,"dose: 30.0 mg/kg/injection, schedule: Q## X015 (oral), vehicle: carboxymethylcellulose (CMC)",90 % of control
same,T/C,"dose: 37.5 mg/kg/injection, schedule: Q01DX001 (ip), vehicle: saline",94 % of control
same,T/C,"dose: 39.0 mg/kg/injection, schedule: Q01DX001 (sc), vehicle: saline",96 % of control
same,T/C,"dose: 60.0 mg/kg/injection, schedule: Q01DX005 (oral), vehicle: carboxymethylcellulose (CMC)",88 % of control
same,T/C,"dose: 65.0 mg/kg/injection, schedule: Q01DX001 (ip), vehicle: saline",88 % of control
same,T/C,"dose: 65.0 mg/kg/injection, schedule: Q01DX001 (sc), vehicle: saline",96 % of control
CN(C)c1ccc(/C=C/c2ccnc3ccccc23)cc1,T/C,"dose: 2.0 mg/kg/injection, schedule: Q01DX028 (sc), vehicle: carboxymethylcellulose (CMC)",95 % of control
same,T/C,"dose: 4.0 mg/kg/injection, schedule: Q01DX028 (sc), vehicle: carboxymethylcellulose (CMC)",100 % of control
same,T/C,"dose: 8.0 mg/kg/injection, schedule: Q01DX028 (sc), vehicle: carboxymethylcellulose (CMC)",95 % of control
same,T/C,"dose: 16.0 mg/kg/injection, schedule: Q01DX028 (sc), vehicle: carboxymethylcellulose (CMC)",92 % of control
same,T/C,"dose: 23.0 mg/kg/injection, schedule: Q01DX028 (sc), vehicle: carboxymethylcellulose (CMC)",105 % of control
same,T/C,"dose: 32.0 mg/kg/injection, schedule: Q01DX028 (sc), vehicle: carboxymethylcellulose (CMC)",100 % of control
same,T/C,"dose: 39.0 mg/kg/injection, schedule: Q01DX028 (sc), vehicle: carboxymethylcellulose (CMC)",97 % of control
same,T/C,"dose: 65.0 mg/kg/injection, schedule: Q01DX028 (sc), vehicle: carboxymethylcellulose (CMC)",100 % of control
same,T/C,[1],95 % of control
same,T/C,[2],95 % of control
CO[C@@]12[C@H](COC(N)=O)C3=C(C(=O)C(C)=C(N)C3=O)N1C[C@@H]1N[C@@H]12,T/C,"dose: 0.25 mg/kg/injection, schedule: Q01DX028 (sc), vehicle: saline",191 % of control
same,T/C,"dose: 0.5 mg/kg/injection, schedule: Q01DX028 (sc), vehicle: saline",161 % of control
same,T/C,"dose: 1.0 mg/kg/injection, schedule: Q01DX028 (sc), vehicle: saline",111 % of control
same,T/C,"dose: 2.0 mg/kg/injection, schedule: Q01DX028 (sc), vehicle: saline",100 % of control
CC(=O)[C@H]1CC[C@H]2[C@@H]3C[C@H](C)C4=CC(=O)CC[C@]4(C)[C@H]3C(=O)C[C@]12C,T/C,[1],102 % of control
same,T/C,[2],100 % of control
same,T/C,"dose: 300.0 mg/kg/injection, schedule: Q01DX028 (sc), vehicle: carboxymethylcellulose (CMC)",97 % of control
same,T/C,"dose: 500.0 mg/kg/injection, schedule: Q01DX028 (sc), vehicle: carboxymethylcellulose (CMC)",97 % of control
